Results: patent EP4803512A1, “COMPOUND CAPABLE OF INHIBITING CONNEXIN-ASSOCIATED KINASE 1, PREPARATION, AND USE THEREOF” (Xizang Haisco Pharmaceutical Co., Ltd., priority 2023, dated 2025)
pIC50: −log10 of the molar value.

How the values were obtained:
[1] = cited from earlier work
[2] = mice; cited from earlier work
[3] = cited from earlier work; remark: listed apart in the source
[4] = mice; cited from earlier work; remark: listed apart in the source
[5] = Liver microsomal stability assay, rat liver microsomal model; assay type: in vitro ADME; conditions: rat liver microsomes, 1 µM, 37°C, NADPH
Description: In this experiment, liver microsomes of five species, including human, monkey, dog, rat and mouse, were used as in vitro models to evaluate the metabolic stability of the test compound.
At 37°C, 1 µM of the test compound was co-incubated with microsomal protein and coenzyme NADPH. At given time points of the reaction (5 min, 10 min, 20 min, 30 min, and 60 min), the reaction was terminated by adding ice-cold acetonitrile containing an internal standard. The LC-MS/MS method was used to measure the concentration of the test compound in the sample. T1/2 was calculated using the ln value of the percentage of drug remaining in the incubation system and the incubation time. In addition, the intrinsic clearance in liver microsomes CLint(mic) and the intrinsic clearance in liver CLint(Liver) were further calculated. Table 7 Results of test compounds in rat liver microsomal model

[6] = Pharmacokinetic assay in rats; assay type: in vivo, SD rats; conditions: rat, po, plasma, Intragastric administration (5 mg/kg)
Description: 4.1 Experimental animals: Male SD rats, about 220 g, 6-8 weeks old, 6 rats/compound, purchased from Chengdu Dossy Experimental Animals Co., Ltd.
4.2 Experimental design: on the day of the experiment, 6 SD rats were randomly grouped according to their body weights. The animals were fasted with water available for 12-14 h one day before the administration, and were fed 4 h after the administration. Table 5 Administration information
Before and after the administration, 0.1 ml of blood was taken from the orbit under isoflurane anaesthesia and placed in an EDTAK2 centrifuge tube. The tube was centrifuged at 5000 rpm at 4°C for 10 min, and plasma was collected. Blood sampling time points for the intravenous administration group: 0, 5 min, 15 min, 30 min, 1 h, 2 h, 4 h, 6 h, 8 h and 24 h; blood sampling time points for the intragastric administration group: 0, 5 min, 15 min, 30 min, 1 h, 2 h, 4 h, 6 h, 8 h and 24 h. Before analysis and detection, all samples were stored at -80°C.

AAK1 = molecular target: T1, AAK1 (Homo sapiens, UniProt Q2M2I8); experiment: In vitro AAK1 enzyme activity assay (ADP-Glo); assay type: biochemical; conditions: inhibitory activity against AAK1
T1 construct: purchased Signalchem A01-11G-10
Description: Compound stock solution (concentration: 10 mM, dissolved in DMSO) was diluted with DMSO to 0.2 mM and then diluted with DMSO in 5-fold gradient to obtain compound solutions with 10 concentrations. Subsequently, the compound solutions with different concentrations were diluted 50-fold in 1× kinase reaction buffer (containing 40 mM Tris, 20 mM MgCl2, 0.1% BSA and 0.5 mM DTT) for later use. AAK1 (Signalchem, Cat# A01-11G-10) was diluted with 1× kinase reaction buffer to 2-fold the final concentration (final concentrations: 30 nM and 28 nM). AAK1 was added to a 384-well white plate at 2 µL/well, and the compounds were then added at 1 µL/well. The plate was sealed with a plate-sealing film, centrifuged at 1000 rpm for 30 seconds and then placed at room temperature for 10 minutes. […] The RLU (Relative luminescence unit) signal values were read using a Biotek multimode microplate reader, and the percent inhibition was calculated according to the following formula: [1-(LUM compound-LUM positive control) / (LUM negative control-LUM positive control)] × 100. IC50 values were calculated using Graphpad 7.0 software using a four-parameter non-linear fit equation. […]

hERG potassium channel = molecular target: T2, hERG potassium channel (Homo sapiens, UniProt Q12809); experiment: hERG potassium channel activity assay, manual whole-cell patch clamp; assay type: cell-based; conditions: IC50, inhibition of hERG potassium channel current, CHO cells stably expressing hERG
T2 construct: expressed in transfected cells
Source text: 2.1 Experimental preparation: Experimental platform: manual electrophysiological patch-clamp system; Cell line: Chinese hamster ovary (CHO) cell line stably expressing hERG potassium channel.
2.2. Experimental method: In Chinese Hamster Ovary (CHO) cells stably expressing hERG potassium channel, the whole-cell patch-clamp technique was used to record hERG potassium channel current at room temperature. The glass microelectrodes were pulled from glass electrode blanks (BF150-86-10, Sutter) by a glass microelectrode puller. The tip resistance of the microelectrodes after being filled with intrapipette solution was about 2-5 MΩ. The glass microelectrodes were connected to the patch-clamp amplifier by inserting them into an amplifier probe. The clamping voltage and data recording were controlled and recorded by the pClamp 10 software through a computer, with a sampling frequency of 10 kHz and a filtering frequency of 2 kHz. After the whole cell records were obtained, the cells were clamped at -80 mV, and the step voltage that induced the hERG potassium current (I hERG) was depolarised from -80 mV to +20 mV for 2 s, then repolarised to -50 mV, and returned to -80 mV after 1 s. […]
Compound IC50 was calculated using GraphPad Prism 5 software by fitting according to the following equation: Y = Bottom + (Top−Bottom)/(1+10^(∧)((LogIC50−X)×HillSlope)) [formula] […]

[7] = Pharmacokinetic assay in mice; assay type: in vivo, ICR mice; conditions: plasma
Description: 3.1 Experimental animals: Male ICR mice, 20-25 g, 6 mice/compound, purchased from Chengdu Dossy Experimental Animals Co., Ltd.
3.2 Experimental design: on the day of the experiment, the ICR mice were randomly grouped according to their body weights. The animals were fasted with water available for 12-14 h one day before the administration, and were fed 4 h after the administration. Table 3 Administration information
vehicle for intravenous administration: 5%DMA+5%HS-15+90%NS; vehicle for intragastric administration: 0.5% MC; before and after administration, 0.06 mL of blood was taken from the orbit under isoflurane anaesthesia and placed in an EDTAK2 centrifuge tube. The tube was centrifuged at 5000 rpm at 4°C for 10 min, and plasma was collected. The blood sampling time points for both the intravenous administration group and intragastric administration group were 0, 5 min, 15 min, 30 min, 1 h, 2 h, 4 h, 7 h and 24 h. Before analysis and detection, all samples were stored at -80°C, and the samples were quantitatively analysed by LC-MS/MS. Table 4 Pharmacokinetic parameters of test compounds in plasma of mice

PC12 cells = conditions: cited from earlier work
[8] = Intragastric administration (10 mg/kg), 10 mg/kg

T1 sequence (Q2M2I8 27-365 limits assumed): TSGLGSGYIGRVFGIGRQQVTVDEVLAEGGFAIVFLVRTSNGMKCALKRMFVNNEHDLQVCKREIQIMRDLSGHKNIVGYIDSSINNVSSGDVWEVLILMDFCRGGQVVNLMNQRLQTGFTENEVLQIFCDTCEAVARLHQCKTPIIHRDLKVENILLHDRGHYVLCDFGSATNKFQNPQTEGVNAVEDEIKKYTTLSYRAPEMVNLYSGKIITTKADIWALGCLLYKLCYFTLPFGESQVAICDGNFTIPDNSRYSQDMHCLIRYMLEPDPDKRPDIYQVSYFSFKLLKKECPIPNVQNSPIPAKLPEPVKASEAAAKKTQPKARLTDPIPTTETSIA
T2 sequence (Q12809 whole entry): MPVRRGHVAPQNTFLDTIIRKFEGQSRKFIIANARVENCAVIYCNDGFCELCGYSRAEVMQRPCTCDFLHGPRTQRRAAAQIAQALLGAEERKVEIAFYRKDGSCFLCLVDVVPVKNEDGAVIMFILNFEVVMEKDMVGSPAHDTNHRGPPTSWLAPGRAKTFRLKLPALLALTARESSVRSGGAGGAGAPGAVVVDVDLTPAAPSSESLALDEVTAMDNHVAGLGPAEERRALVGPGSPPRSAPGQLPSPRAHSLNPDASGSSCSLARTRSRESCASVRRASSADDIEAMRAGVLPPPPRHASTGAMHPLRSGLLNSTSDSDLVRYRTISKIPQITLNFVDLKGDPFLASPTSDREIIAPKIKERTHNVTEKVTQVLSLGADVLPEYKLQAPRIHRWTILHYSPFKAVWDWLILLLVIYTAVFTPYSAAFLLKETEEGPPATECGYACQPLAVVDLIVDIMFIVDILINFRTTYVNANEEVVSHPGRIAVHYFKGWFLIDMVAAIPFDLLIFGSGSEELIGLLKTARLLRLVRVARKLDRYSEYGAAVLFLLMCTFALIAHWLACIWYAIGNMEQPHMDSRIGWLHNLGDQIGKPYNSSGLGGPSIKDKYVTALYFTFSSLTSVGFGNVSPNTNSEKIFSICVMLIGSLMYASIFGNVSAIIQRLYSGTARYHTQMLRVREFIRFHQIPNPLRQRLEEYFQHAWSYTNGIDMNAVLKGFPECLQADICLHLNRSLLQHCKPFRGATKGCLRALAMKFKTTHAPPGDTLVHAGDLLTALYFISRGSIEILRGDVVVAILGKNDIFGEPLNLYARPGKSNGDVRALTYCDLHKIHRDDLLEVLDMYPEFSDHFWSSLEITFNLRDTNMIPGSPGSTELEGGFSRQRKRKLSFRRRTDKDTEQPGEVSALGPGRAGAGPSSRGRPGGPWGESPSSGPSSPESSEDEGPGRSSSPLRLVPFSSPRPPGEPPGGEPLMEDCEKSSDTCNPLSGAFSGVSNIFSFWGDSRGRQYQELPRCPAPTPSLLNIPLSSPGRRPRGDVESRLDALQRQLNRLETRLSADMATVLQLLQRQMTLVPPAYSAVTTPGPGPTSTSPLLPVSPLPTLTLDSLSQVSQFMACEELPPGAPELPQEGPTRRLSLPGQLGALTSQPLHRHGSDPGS

SMILES: COc1ncccc1-c1cnn2ccc(N3CCN(C(=O)OC(C)C)CC3)nc12 [LP-935509]
- pain responses in the mouse chronic constriction injury (CCI) model [1]: significantly attenuate
- pain responses in phase II of the formalin model [2]: significantly attenuate
- pain responses in the mouse streptozotocin-induced diabetic neuropathy model [3]: significantly attenuate
- mechanical allodynia induced by SNL [4]: significantly attenuate

SMILES: CC(O)(CO)C[C@](C)(N)COc1ccc(-c2ccnc(C(F)F)c2)nc1C(F)F (single isomer, unassigned) [Compound 1-2]
- Percentage of drug remaining after 60 min of incubation [5]: > 99%
- AUC(0-t) [6]: 4050 ng·h/mL
- half-life [6]: 4.52 h
- pIC50 (AAK1): ≥ 7.70
- pIC50 (hERG potassium channel): 4.86
- clearance ([7]; mouse, Intravenous administration (2.5 mg/kg)): 57.8 mL/min/kg
- Vd ([7]; mouse, Intravenous administration (2.5 mg/kg), read-out: Vdss): 10.5 L/kg
- half-life ([7]; mouse, iv, 2.5 mg/kg, Intravenous administration (2.5 mg/kg)): 2.53 h
- AUC(0-t) ([7]; mouse, iv, 2.5 mg/kg, Intravenous administration (2.5 mg/kg), read-out: AUC0-t): 630 ng·h/mL
- half-life ([7]; mouse, po, 10 mg/kg, Intragastric administration (10 mg/kg)): 3.09 h
- AUC(0-t) ([7]; mouse, po, 10 mg/kg, Intragastric administration (10 mg/kg), read-out: AUC0-t): 3520 ng·h/mL

SMILES: CC(O)(CO)C[C@](C)(N)COc1ccc(-c2ccnc(C(F)F)c2)nc1C(F)F (single isomer, unassigned) [Compound 1-1]
- Percentage of drug remaining after 60 min of incubation [5]: 93.7%
- pIC50 (AAK1): ≥ 7.70
- pIC50 (hERG potassium channel): 5.17
- AUC(0-t) [7, 8]: 4400 ng·h/mL
- T1/2 [7, 8]: 4.82 h

SMILES: COC(=O)[C@@]1(O)C[C@H]2O[C@]1(C)n1c3ccccc3c3c4c(c5c6ccccc6n2c5c31)C(=O)NC4 [Compound K252a]
- ErbB4 accumulation in the plasma membrane or in close proximity to the plasma membrane (PC12 cells): increased
- ErbB4 expression (PC12 cells): increased
- neuregulin-1-induced neurite outgrowth (PC12 cells): potentiates
